# Source: patent US4092431A, “Pharmaceutical composition and method of the use thereof” (Chugai Seiyaku Kabushiki Kaisha, priority 1977, dated 1978)
# How the values were obtained:
# pylorus ligature ulcer = assay: Protective action on pylorus ligature ulcer formation; format: in vivo, Sprague-Dawley strain male rats; conditions: for Death Rate / Perforating Ulcers / Ulcer Index (mean value ± standard deviation) / Percent Inhibition: in the duodenum; for Ulcer Index (mean value ± standard deviation): scale 0 to 5, control 4.0 ± 1.3; for Percent Inhibition: ulcer index
# Description: The pylorus of Sprague-Dawley strain male rats weighing 150-200 g that had abstained from food, but not water for 48 hours was ligatured under ether anethsia. Each rat was allowed to stand individually in a cage for 16 hours without food and water. At the end of this term, the rats were sacrificed by an overdose of diethyl ether. The stomach was taken out of each animal and the gastric mucosa was obserbed by the use of a dissecting microscope.
# Ulcers observed in the gastric mucosa were evaluated on a scale of from 0 to 5 defined as follows.
# 0: No lesion was observed.
# 1: Hemorrhage and/or erosion were observed.
# 2: One to five small ulcers less than 3 mm in diameter were observed.
# 3: Six or more small ulcers and/or a large ulcer more than 3 mm in diameter were observed.
# 4: Two or more large ulcers were observed.
# 5: At least one perforating ulcer was observed.
# A test compound was administered as an aqueous solution in an equivalent molar of hydrochloric acid in the duodenum immediately after the pylorus ligature.
# stress-induced ulcer = assay: Inhibitory action on stress-induced ulcer formation; format: in vivo, Sprague-Dawley strain male rats; conditions: oral; for dose dependence of inhibiting action on ulcer formation: 30 mg/kg and above; for Ulcer Index (mean value ± standard deviation): Ulcer Index = a + b/10, control 6.1 ± 2.3; for Number of Ulcers/Stomach, 3 mm or larger: control 1.3; for Number of Ulcers/Stomach, up to 3 mm: control 45.6; for Percent Inhibition: ulcer index
# Description: Sprague-Dawley strain male rats weighing 200-250 g were deprived of food for 24 hours, and then laid down on their backs on a screen and fixed by fastening their limbs with a strand. The fixed rats were submerged in water bath to the depth of ensiform process with their hind legs dipped first. Sixteen hours after the submerge, the rats were brought out from the bath and their stomachs were taken out. After light fixation with a 1% formalin aqueous solution, the stomach of each animal was cut open along their greater curvature and gastric mucosa was observed through a dissecting microscope. The ulcer was evaluated on an ulcer index calculated from the following equation: […]
# wherein a is the number of big ulcers more than 3 mm in diameter and b is the number of small ulcers up to 3 mm in diameter.
# A test compound was orally administered as a suspension in a 1% gum arabic aqueous solution, 10 minutes before exposure to stress.
# acetic acid ulcer = assay: Action on the healing of acetic acid ulcers; format: in vivo, Sprague-Dawley strain male rats; conditions: oral; for Percent healing Rate / Ulcer Index (mean number ± standard deviation), product of major and minor axis: once a day for 15 days; for Ulcer Index (mean number ± standard deviation), product of major and minor axis: control 12.5 ± 6.0
# Description: Sprague-Dawley strain male rate (8 weeks old) were etherized and their abdominal parts were cut open. A 20% acetic acid aqueous solution (0.05 ml) was injected into subserosal layer in the glandular part of stomach of each rat and the incisions were sutured.
# From the fourth day after the operation, each rat was orally administered with 1-(3'-dimethylaminopropoxy)-2,4-bis(3"-methylbenzamido)-benzene in a dose of 10 mg/kg or 40 mg/kg. body weight as an aqueous solution in an equivalent molar of hydrochloric acid once a day for 15 days. On the day after the last administration, the rats were sacrificed by an overdose of diethyl ether and the stomach of each of the rats was taken out. After light fixation of the stomach with a 1% formalin solution, it was cut open along the greater curvature and the gastric mucosa was observed through a dissecting microscope. The ulcer was evaluated as the product (mm^2) of the major axis and the minor axis of the ulcer.
# Acute toxicity in mice = conditions: mouse, in vivo, po
Structure (SMILES),Death Rate (pylorus ligature ulcer; 50 mg/kg) [%],Perforating Ulcers (pylorus ligature ulcer; 50 mg/kg) [%],Ulcer Index (mean value ± standard deviation) (pylorus ligature ulcer; 50 mg/kg),Percent Inhibition (pylorus ligature ulcer; 50 mg/kg) [%],inhibition of death of rats and formation of perforating ulcers (pylorus ligature ulcer; 100 mg/kg or 200 mg/kg),prevention of formation of gastric ulcers (pylorus ligature ulcer; 100 mg/kg or 200 mg/kg),Death Rate (pylorus ligature ulcer; 100 mg/kg) [%],Perforating Ulcers (pylorus ligature ulcer; 100 mg/kg) [%],Ulcer Index (mean value ± standard deviation) (pylorus ligature ulcer; 100 mg/kg),Percent Inhibition (pylorus ligature ulcer; 100 mg/kg) [%],Death Rate (pylorus ligature ulcer; 200 mg/kg) [%],Perforating Ulcers (pylorus ligature ulcer; 200 mg/kg) [%],Ulcer Index (mean value ± standard deviation) (pylorus ligature ulcer; 200 mg/kg),Percent Inhibition (pylorus ligature ulcer; 200 mg/kg) [%],dose dependence of inhibiting action on ulcer formation (stress-induced ulcer),inhibition of the formation of ulcer (stress-induced ulcer; 30 mg/kg body weight),Ulcer Index (mean value ± standard deviation) (stress-induced ulcer; 100 mg/kg),"Number of Ulcers/Stomach, 3 mm or larger (stress-induced ulcer; 100 mg/kg)","Number of Ulcers/Stomach, up to 3 mm (stress-induced ulcer; 100 mg/kg)",Percent Inhibition (stress-induced ulcer; 100 mg/kg) [%],other results
"Cc1ccccc1C(=O)Nc1ccc(OCCCN(C)C)c(NC(=O)c2ccccc2C)c1 [1-(3'-dimethylaminopropoxy)-2,4-bis(2""-methylbenzamido)-benzene]",20,20,3.2 ± 1.3,20,completely inhibited the death of rats and the formation of perforating ulcers,prevented the formation of gastric ulcers on a statistically significant level,0,0,2.6 ± 0.5,35,0,0,0,100,inhibiting action increases as the dose level heightens,50-60%,0.4 ± 0.5,0,3.8,93,"Ulcer Index (mean value ± standard deviation) (stress-induced ulcer; 30 mg/kg): 2.8 ± 0.8; Number of Ulcers/Stomach, 3 mm or larger (stress-induced ulcer; 30 mg/kg): 0.6; Number of Ulcers/Stomach, up to 3 mm (stress-induced ulcer; 30 mg/kg): 23.4; Percent Inhibition (stress-induced ulcer; 30 mg/kg): 54%; Ulcer Index (mean value ± standard deviation) (stress-induced ulcer; 45 mg/kg): 2.0 ± 0.6; Number of Ulcers/Stomach, 3 mm or larger (stress-induced ulcer; 45 mg/kg): 0.2; Number of Ulcers/Stomach, up to 3 mm (stress-induced ulcer; 45 mg/kg): 16.8; Percent Inhibition (stress-induced ulcer; 45 mg/kg): 67%; Ulcer Index (mean value ± standard deviation) (stress-induced ulcer; 67 mg/kg): 1.0 ± 0.9; Number of Ulcers/Stomach, 3 mm or larger (stress-induced ulcer; 67 mg/kg): 0.2; Number of Ulcers/Stomach, up to 3 mm (stress-induced ulcer; 67 mg/kg): 8.8; Percent Inhibition (stress-induced ulcer; 67 mg/kg): 84%"
"Cc1cccc(C(=O)Nc2ccc(C(=O)NCCCN(C)C)c(NC(=O)c3cccc(C)c3)c2)c1 [1-[N-(3'-dimethylaminopropyl)-carbamoyl]-2,4-bis(3""-methylbenzamido)-benzene]",,,,,,,,,,,0,0,2.5 ± 1.4,38,,,2.4 ± 2.1,0.6,17.6,61,inhibition of death of rats and formation of perforating ulcers (pylorus ligature ulcer; 200 mg/kg): completely inhibited the death of rats and the formation of perforating ulcers; prevention of formation of gastric ulcers (pylorus ligature ulcer; 200 mg/kg): prevented the formation of gastric ulcers on a statistically significant level; inhibition of the formation of ulcer (stress-induced ulcer; 100 mg/kg body weight): 50-60%
"Cc1cccc(C(=O)Nc2ccc(OCCCN(C)C)c(NC(=O)c3cccc(C)c3)c2)c1 [1-(3'-dimethylaminopropoxy)-2,4-bis(3""-methylbenzamido)-benzene]",33,50,4.0 ± 1.1,0,completely inhibited the death of rats and the formation of perforating ulcers,prevented the formation of gastric ulcers on a statistically significant level,0,0,2.0 ± 1.4,50,0,0,1.0 ± 1.1,75,inhibiting action increases as the dose level heightens,50-60%,2.0 ± 2.1,0.8,10.6,67,"Ulcer Index (mean value ± standard deviation) (stress-induced ulcer; 30 mg/kg): 2.6 ± 2.1; Number of Ulcers/Stomach, 3 mm or larger (stress-induced ulcer; 30 mg/kg): 0.5; Number of Ulcers/Stomach, up to 3 mm (stress-induced ulcer; 30 mg/kg): 21.4; Percent Inhibition (stress-induced ulcer; 30 mg/kg): 57%; Ulcer Index (mean value ± standard deviation) (stress-induced ulcer; 45 mg/kg): 2.0 ± 1.7; Number of Ulcers/Stomach, 3 mm or larger (stress-induced ulcer; 45 mg/kg): 1.0; Number of Ulcers/Stomach, up to 3 mm (stress-induced ulcer; 45 mg/kg): 8.7; Percent Inhibition (stress-induced ulcer; 45 mg/kg): 67%; Ulcer Index (mean value ± standard deviation) (stress-induced ulcer; 67 mg/kg): 1.5 ± 2.7; Number of Ulcers/Stomach, 3 mm or larger (stress-induced ulcer; 67 mg/kg): 0.8; Number of Ulcers/Stomach, up to 3 mm (stress-induced ulcer; 67 mg/kg): 7.3; Percent Inhibition (stress-induced ulcer; 67 mg/kg): 75%; ulcer index in comparison with control (acetic acid ulcer; 10 mg/kg and 40 mg/kg): on a statistically significant lower level in comparison with those of the control; Percent healing Rate (acetic acid ulcer; 10 mg/kg): 45%; Ulcer Index (mean number ± standard deviation), product of major and minor axis (acetic acid ulcer; 10 mg/kg): 6.9 ± 5.6 mm^2; Percent healing Rate (acetic acid ulcer; 40 mg/kg): 42%; Ulcer Index (mean number ± standard deviation), product of major and minor axis (acetic acid ulcer; 40 mg/kg): 7.2 ± 5.1 mm^2"
"Cc1ccccc1C(=O)Nc1ccc(C(=O)NCCCN(C)C)c(NC(=O)c2ccccc2C)c1 [1-[N-(3'-dimethylaminopropyl)-carbamoyl]-2,4-bis(2""-methylbenzamido)-benzene]",,,,,,,,,,,0,0,1.4 ± 1.4,65,,,3.0 ± 1.0,0.8,23.4,51,inhibition of death of rats and formation of perforating ulcers (pylorus ligature ulcer; 200 mg/kg): completely inhibited the death of rats and the formation of perforating ulcers; prevention of formation of gastric ulcers (pylorus ligature ulcer; 200 mg/kg): prevented the formation of gastric ulcers on a statistically significant level; LD50 (Acute toxicity in mice): > 11000 mg/kg; inhibition of the formation of ulcer (stress-induced ulcer; 100 mg/kg body weight): 50-60%
